Molecules are shown by their SMILES. The source made the active and inactive calls. The rule behind the calls is not given here.

The first series relates to Periplaneta americana. As to the kind of experiment: Insecticidal activity against Periplaneta americana (American cockroach) assessed as killing compound injected into abdomen of cockroach after 24 hr. Format: functional.
For the compound `CCN/C(=N\C#N)NCc1ccc(Cl)nc1`, the MLD is given as more than 170 nmol.

As for `CS/C(=N\C#N)NCc1ccc(Cl)nc1`, the MLD is recorded as more than 83 nmol.

In the case of `CN(Cc1ccc(Cl)nc1)/C(=N/C#N)NCc1ccccc1`, the MLD was determined as 81 nmol.

Take `N#C/N=C1\SCCN1Cc1ccc(Cl)nc1` [THIACLOPRID]: the MLD turned out to be 21 nmol.

Regarding `CN(C)/C(=N\C#N)NCc1ccc(Cl)nc1`, the MLD is recorded as more than 170 nmol.

`CS/C(=N\C#N)N(C)Cc1ccc(Cl)nc1`: the MLD stood at 160 nmol.

Regarding `N#C/N=C(\NCc1ccccc1)NCc1ccc(Cl)nc1`, the MLD is recorded as more than 66 nmol.

As for `CN(Cc1ccc(Cl)nc1)/C(N)=N/C#N`, the MLD turned out to be 22 nmol.

With `CCN/C(=N\C#N)N(C)Cc1ccc(Cl)nc1`, the MLD was found to be 26 nmol.

Turning to `CN/C(=N\C#N)NCc1ccc(Cl)nc1`, the MLD is more than 180 nmol.

`CN/C(=N\C#N)N(C)Cc1ccc(Cl)nc1`: the MLD is 68 nmol.

As to `CN(C)/C(=N\C#N)N(C)Cc1ccc(Cl)nc1`, the MLD stood at 320 nmol.

Turning to `O=[N+]([O-])/N=C1\NCCN1Cc1ccc(Cl)nc1` [IMIDACLOPRID], the MLD is reported as 1.1 nmol.

The next series relates to Periplaneta americana. The series can be described thus: Insecticidal activity against Periplaneta americana (American cockroach) assessed as increase in frequency of impulses in nerve preparation measured immediately after treatment at 10^-5 M by electrophysiological method. It is filed as functional, organism-based.
For `CN/C(=N\C#N)NCc1ccc(Cl)nc1`, the result was Active.

System in another series: not listed separately
The series can be described thus: Octanol-water partition coefficient, log P of the compound at 23 degC by shake flask method. It is filed as physicochemical.
Take `CCN/C(=N\C#N)NCc1ccc(Cl)nc1`: the logP – broadly, the decadic logarithm of the partition coefficient of the neutral form, usually between octanol and water – turned out to be 0.86.

On to `CS/C(=N\C#N)NCc1ccc(Cl)nc1`, for which the logP came to 1.27.

For the compound `CN(Cc1ccc(Cl)nc1)/C(=N/C#N)NCc1ccccc1`, the logP was 1.32.

`N#C/N=C1\SCCN1Cc1ccc(Cl)nc1` [THIACLOPRID] gave a logP of 1.2.

`CN(C)/C(=N\C#N)NCc1ccc(Cl)nc1` yielded a log partition coefficient (logP) of 0.66.

Compound `CS/C(=N\C#N)N(C)Cc1ccc(Cl)nc1` returned a logP of 1.4.

The compound `CN(Cc1ccc(Cl)nc1)/C(N)=N/C#N` registered a lipophilicity (logP) of 0.71.

As to `CCN/C(=N\C#N)N(C)Cc1ccc(Cl)nc1`, the logP turned out to be 1.02.

In the case of `CN/C(=N\C#N)NCc1ccc(Cl)nc1`, the lipophilicity (logP) worked out at 0.84.

`CN/C(=N\C#N)N(C)Cc1ccc(Cl)nc1`: the logP stood at 0.78.

In turn, `CN(C)/C(=N\C#N)N(C)Cc1ccc(Cl)nc1` had a logP of 0.66.

The compound `O=[N+]([O-])/N=C1\NCCN1Cc1ccc(Cl)nc1` [IMIDACLOPRID] came in with a logP of 0.6.

Another series has as its system Periplaneta americana. The series can be described thus: Insecticidal activity against Periplaneta americana (American cockroach) assessed as killing compound injected into abdomen of cockroach after 24 hr in presence of 50 ug piperonyl butoxide oxidative metabolism inhibitor and 50 ug propargyl propyl benzenephosphonate inhibitor of hydrolytic. Format: functional.
On to `CCN/C(=N\C#N)NCc1ccc(Cl)nc1`, for which the MLD is more than 170 nmol.

For the compound `CS/C(=N\C#N)NCc1ccc(Cl)nc1`, the MLD was found to be 0.66 nmol.

Consider `CN(Cc1ccc(Cl)nc1)/C(=N/C#N)NCc1ccccc1`, for which the MLD turned out to be 6.3 nmol.

Turning to `N#C/N=C1\SCCN1Cc1ccc(Cl)nc1` [THIACLOPRID], the MLD is 0.21 nmol.

Regarding `CN(C)/C(=N\C#N)NCc1ccc(Cl)nc1`, the MLD turned out to be 140 nmol.

Take `CS/C(=N\C#N)N(C)Cc1ccc(Cl)nc1`: the MLD amounted to 2.5 nmol.

As to `N#C/N=C(\NCc1ccccc1)NCc1ccc(Cl)nc1`, the MLD was determined as 66 nmol.

As for `CN(Cc1ccc(Cl)nc1)/C(N)=N/C#N`, the MLD stood at 1.2 nmol.

Take `CCN/C(=N\C#N)N(C)Cc1ccc(Cl)nc1`: the MLD came to 40 nmol.

In the case of `CN/C(=N\C#N)NCc1ccc(Cl)nc1`, the MLD came out at 8.9 nmol.

For `CN/C(=N\C#N)N(C)Cc1ccc(Cl)nc1`, the MLD is on record as 54 nmol.

As to `CN(C)/C(=N\C#N)N(C)Cc1ccc(Cl)nc1`, the MLD came to 20 nmol.

Regarding `O=[N+]([O-])/N=C1\NCCN1Cc1ccc(Cl)nc1` [IMIDACLOPRID], the MLD is listed as 0.07 nmol.

In another series the test system is Periplaneta americana. As to the kind of experiment: Insecticidal activity against Periplaneta americana (American cockroach) assessed as killing compound injected into abdomen of cockroach after 24 hr in presence of 50 ug piperonyl butoxide oxidative metabolism inhibitor. Format: functional.
As to `CS/C(=N\C#N)NCc1ccc(Cl)nc1`, the MLD was 21 nmol.

With `CN(Cc1ccc(Cl)nc1)/C(=N/C#N)NCc1ccccc1`, the MLD is reported as 25 nmol.

With `N#C/N=C1\SCCN1Cc1ccc(Cl)nc1` [THIACLOPRID], the MLD is 5.9 nmol.

On to `CS/C(=N\C#N)N(C)Cc1ccc(Cl)nc1`, for which the MLD was found to be 71 nmol.

Turning to `CN(Cc1ccc(Cl)nc1)/C(N)=N/C#N`, the MLD is 14 nmol.

Consider `CN/C(=N\C#N)NCc1ccc(Cl)nc1`, for which the MLD stood at 180 nmol.

For the compound `CN(C)/C(=N\C#N)N(C)Cc1ccc(Cl)nc1`, the MLD amounted to 200 nmol.

With `O=[N+]([O-])/N=C1\NCCN1Cc1ccc(Cl)nc1` [IMIDACLOPRID], the MLD worked out at 0.55 nmol.

The test system of another series is Periplaneta americana. As to the kind of experiment: Insecticidal activity against Periplaneta americana (American cockroach) assessed as neuroblocking concentration. Format: functional.
`CCN/C(=N\C#N)NCc1ccc(Cl)nc1`: the Activity is more than 170 µM.

Take `CS/C(=N\C#N)NCc1ccc(Cl)nc1`: the Activity was found to be 1.7 µM.

With `CN(Cc1ccc(Cl)nc1)/C(=N/C#N)NCc1ccccc1`, the Activity came to 150 µM.

In the case of `N#C/N=C1\SCCN1Cc1ccc(Cl)nc1` [THIACLOPRID], the Activity was 2.6 µM.

Regarding `CN(C)/C(=N\C#N)NCc1ccc(Cl)nc1`, the Activity was more than 170 µM.

In the case of `CS/C(=N\C#N)N(C)Cc1ccc(Cl)nc1`, the Activity was 6 µM.

Regarding `N#C/N=C(\NCc1ccccc1)NCc1ccc(Cl)nc1`, the Activity is 150 µM.

On to `CN(Cc1ccc(Cl)nc1)/C(N)=N/C#N`, for which the Activity came out at 9.6 µM.

`CCN/C(=N\C#N)N(C)Cc1ccc(Cl)nc1`: the Activity was more than 160 µM.

Take `CN/C(=N\C#N)NCc1ccc(Cl)nc1`: the Activity stood at 110 µM.

Regarding `CN/C(=N\C#N)N(C)Cc1ccc(Cl)nc1`, the Activity was more than 170 µM.

Regarding `CN(C)/C(=N\C#N)N(C)Cc1ccc(Cl)nc1`, the Activity is more than 400 µM.

For `O=[N+]([O-])/N=C1\NCCN1Cc1ccc(Cl)nc1` [IMIDACLOPRID], the Activity stood at 2.3 µM.

The test system of another series is Periplaneta americana. The series can be described thus: Insecticidal activity against Periplaneta americana (American cockroach) assessed as killing compound injected into abdomen of cockroach after 24 hr in presence of 50 ug propargyl propyl benzenephosphonate inhibitor of hydrolytic metabolism of tetramethrin pyrethroid. It is filed as functional.
With `CS/C(=N\C#N)NCc1ccc(Cl)nc1`, the MLD is reported as 0.83 nmol.

For the compound `CN(Cc1ccc(Cl)nc1)/C(=N/C#N)NCc1ccccc1`, the MLD came out at 8.1 nmol.

As to `N#C/N=C1\SCCN1Cc1ccc(Cl)nc1` [THIACLOPRID], the MLD is 0.46 nmol.

`CS/C(=N\C#N)N(C)Cc1ccc(Cl)nc1`: the MLD is reported as 6.3 nmol.

As to `CN(Cc1ccc(Cl)nc1)/C(N)=N/C#N`, the MLD is 0.71 nmol.

For the compound `CN/C(=N\C#N)NCc1ccc(Cl)nc1`, the MLD turned out to be 18 nmol.

On to `CN(C)/C(=N\C#N)N(C)Cc1ccc(Cl)nc1`, for which the MLD is reported as 32 nmol.

Consider `O=[N+]([O-])/N=C1\NCCN1Cc1ccc(Cl)nc1` [IMIDACLOPRID], for which the MLD is given as 0.19 nmol.

The values above are taken from ChEMBL document CHEMBL3044613, “Insecticidal and Neuroblocking Activities of Thiacloprid and Its Acyclic Analogues and Their Related Cyanoguanidine Derivatives” (J Pestic Sci, 2002).
